SMILES strings stand for the structures.

One test has as its system cynomolgus monkeys. The experiment in a line: Intravenous Glucose Tolerance Test (IVGTT) in Cynomolgus Monkeys. The format is in vivo, cynomolgus monkeys (Macaca fascicularis). The settings on record: test article intravenous bolus 1-6 minutes prior to IV glucose 0.5 g/kg, plasma insulin 0-60 minutes, FIG. 1. Here is the method: Intravenous Glucose Tolerance Test (IVGTT) in Cynomolgus Monkeys
Aged ([…]) cynomolgus monkeys (Macaca fascicularis; N=4-5/test article) were fasted overnight and anesthetized with ketamine prior to the intravenous glucose tolerance test (IVGTT). The test articles were formulated at 6 mg/mL in vehicle (5% polyethylene glycol 400: 95% (12% (w/v) sulfobutylether-β-cyclodextrin in deionized water) (v/v)]) and administered by intravenous bolus into a peripheral vein 1-6 minutes prior to the IVGTT. The IVGTT was initiated by administration of an IV bolus of glucose (0.5 g/kg as a 50% glucose solution). Blood samples were collected from a peripheral vein 0, 1, 3, 5, 10, 20, 40 and 60 minutes upon completion of the IV bolus glucose injection. The blood samples were collected directly into potassium ethylene diamine tetra-acetic acid tubes and plasma separated by centrifugation at 2,500 g for 10 minutes within 30 minutes of collection. The plasma from all time points was analyzed for insulin concentrations ([…]) using a Cobas e411 Immunology analyzer. Insulin area-under-the-curve (AUC) was calculated using GraphPad Prism software (v 9).

For another test, the target named is T1, human GLP-1 receptor (Homo sapiens, UniProt P43220).
T1 construct: expressed in transfected cells
The experiment in a line: GLP-1R cAMP Assay. Format: cell-based. The settings on record: cAMP accumulation in CHO cells stably overexpressing the human GLP-1 receptor; 30 min treatment; HitHunter cAMP kit; read-out: EC50. The method, boiled down: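 CHO cells stably overexpressing human GLP-1R, 10,000 cells/well, treated with compound in 20-point dose response in triplicate for 30 min. cAMP accumulation read by enzyme-complementation luminescence after lysis and overnight incubation; dose-response curves fitted.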

T1 sequence (P43220 24-463): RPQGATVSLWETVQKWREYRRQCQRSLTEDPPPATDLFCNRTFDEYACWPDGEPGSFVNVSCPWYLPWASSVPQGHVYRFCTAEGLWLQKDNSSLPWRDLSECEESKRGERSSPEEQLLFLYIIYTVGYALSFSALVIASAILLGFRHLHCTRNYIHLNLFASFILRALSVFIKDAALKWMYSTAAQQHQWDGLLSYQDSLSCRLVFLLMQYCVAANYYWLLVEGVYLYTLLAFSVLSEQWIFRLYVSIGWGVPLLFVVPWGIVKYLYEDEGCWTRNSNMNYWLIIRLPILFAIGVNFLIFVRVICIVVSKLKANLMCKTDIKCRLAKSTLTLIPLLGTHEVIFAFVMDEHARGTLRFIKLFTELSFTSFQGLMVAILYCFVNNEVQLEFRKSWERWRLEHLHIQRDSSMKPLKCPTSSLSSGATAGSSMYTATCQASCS

As for `CCn1cncc1Cn1c(CN2CCC(Oc3ccnc(COc4ccc(Cl)cc4C#N)c3)CC2)nc2ccc(C(=O)O)cc21` [Compound 171, 2-{[4-({2-[(4-chloro-2-cyanophenoxy)methyl]pyridin-4-yl}oxy)piperidin-1-yl]methyl}-1-[(1-ethyl-1H-imidazol-5-yl)methyl]-1H-1,3-benzodiazole-6-carboxylic acid], the “insulin AUC (insulin secretion)” value in the test with cynomolgus monkeys was “substantial increase”. Moreover, at human GLP-1 receptor, the EC50 was less than 50 nM.

As for `O=C(O)c1ccc2nc(CN3CCC(Oc4ccnc(COc5ccc(F)cc5Cl)n4)CC3)n(C[C@@H]3CCO3)c2c1` [Compound 326], the “insulin AUC (insulin secretion)” value with cynomolgus monkeys is on record as “substantial increase”. On human GLP-1 receptor, the EC50 was less than 50 nM.

With `O=C(O)c1cc(F)c2nc(CN3CCC(Oc4ccnc(COc5ccc(Cl)cc5F)c4)CC3)n(C[C@@H]3CCO3)c2c1` [Compound 335], the “insulin AUC (insulin secretion)” value with cynomolgus monkeys is reported as “substantial increase”. For the same molecule, the EC50 at human GLP-1 receptor was less than 50 nM.

Turning to `O=C(O)c1ccc2nc(CN3CCC(Oc4ccnc(COc5ccc(C(F)(F)F)cc5F)n4)CC3)n(C[C@@H]3CCO3)c2c1` [Compound 338], in the test with cynomolgus monkeys, the “insulin AUC (insulin secretion)” value is given as “substantial increase”. In addition, on human GLP-1 receptor, the EC50 was less than 50 nM.

Regarding `CCn1cncc1Cn1c(CN2CCC(Oc3ccnc(COc4ccc(Cl)cc4Cl)c3)CC2)nc2ccc(C(=O)O)cc21` [Example 145, 2-((4-((2-((2,4-Dichlorophenoxy)methyl)pyridin-4-yl)oxy)piperidin-1-yl)methyl)-1-((1-ethyl-1H-imidazol-5-yl)methyl)-1H-benzo[d]imidazole-6-carboxylic acid], the “insulin AUC (insulin secretion)” value in the test with cynomolgus monkeys is reported as “substantial increase”. The EC50 on human GLP-1 receptor is less than 50 nM.

Take `N#Cc1ccc(OCc2cccc(OC3CCN(Cc4nc5ccc(C(=O)O)cc5n4C[C@@H]4CCO4)CC3)n2)c(F)c1` [Example 285, (S)-2-((4-((6-((4-Cyano-2-fluorophenoxy)methyl)pyridin-2-yl)oxy)piperidin-1-yl)methyl)-1-(oxetan-2-ylmethyl)-1H-benzo[d]imidazole-6-carboxylic acid]: on human GLP-1 receptor, the EC50 was less than 50 nM.

`O=C(O)c1ccc2nc(CN3CCC(Oc4ccnc(COc5ccc(C(F)F)cc5F)c4)CC3)n(C[C@@H]3CCO3)c2c1` [Example 297, (S)-2-((4-((2-((4-(Difluoromethyl)-2-fluorophenoxy)methyl)pyridin-4-yl)oxy)piperidin-1-yl)methyl)-1-(oxetan-2-ylmethyl)-1H-benzo[d]imidazole-6-carboxylic acid]: the EC50 on human GLP-1 receptor was less than 50 nM.

For the molecule `O=C(O)c1ccc2nc(CN3CCC(Oc4ccnc(COc5ccc(Cl)cc5CF)c4)CC3)n(C[C@@H]3CCO3)c2c1` [Example 299, (S)-2-((4-((2-((4-Chloro-2-(fluoromethyl)phenoxy)methyl)pyridin-4-yl)oxy)piperidin-1-yl)methyl)-1-(oxetan-2-ylmethyl)-1H-benzo[d]imidazole-6-carboxylic acid], the EC50 on human GLP-1 receptor is less than 50 nM.

With `N#Cc1ccc(OCc2cccc(OC3CCN(Cc4nc5c(F)cc(C(=O)O)cc5n4CC4(CF)CC4)CC3)c2)c(F)c1` [Example 300, 2-((4-(3-((4-Cyano-2-fluorophenoxy)methyl)phenoxy)piperidin-1-yl)methyl)-4-fluoro-1-((1-(fluoromethyl)cyclopropyl)methyl)-1H-benzo[d]imidazole-6-carboxylic acid], on human GLP-1 receptor, the EC50 was less than 50 nM.

As for `O=C(O)c1ccc2nc(CN3CCC(Oc4ccnc(COc5ccc(Cl)cc5Cl)n4)CC3)n(C[C@@H]3CCO3)c2c1` [Example 304, (S)-2-((4-((2-((2,4-Dichlorophenoxy)methyl)pyrimidin-4-yl)oxy)piperidin-1-yl)methyl)-1-(oxetan-2-ylmethyl)-1H-benzo[d]imidazole-6-carboxylic acid], the 50% effective concentration (EC50) on human GLP-1 receptor is less than 50 nM.

For the molecule `N#Cc1ccc(OCc2ccc(F)c(OC3CCN(Cc4nc5ccc(C(=O)O)cc5n4C[C@@H]4CCO4)CC3)n2)c(F)c1` [Example 330, (S)-2-((4-((6-((4-Cyano-2-fluorophenoxy)methyl)-3-fluoropyridin-2-yl)oxy)piperidin-1-yl)methyl)-1-(oxetan-2-ylmethyl)-1H-benzo[d]imidazole-6-carboxylic acid], the EC50 at human GLP-1 receptor was less than 50 nM.

Regarding `N#Cc1ccc(OCc2cc(OC3CCN(Cc4nc5ccc(C(=O)O)cc5n4C[C@@H]4CCO4)CC3)c(F)cn2)c(F)c1` [Example 367, (S)-2-((4-((2-((4-Cyano-2-fluorophenoxy)methyl)-5-fluoropyridin-4-yl)oxy)piperidin-1-yl)methyl)-1-(oxetan-2-ylmethyl)-1H-benzo[d]imidazole-6-carboxylic acid], at human GLP-1 receptor, the EC50 is less than 50 nM.

`COC1(Cn2c(CN3CCC(Oc4ccnc(COc5ccc(Cl)cc5F)c4)CC3)nc3ccc(C(=O)O)cc32)CC1` [Example 368, 2-((4-((2-((4-Chloro-2-fluorophenoxy)methyl)pyridin-4-yl)oxy)piperidin-1-yl)methyl)-1-((1-methoxycyclopropyl)methyl)-1H-benzo[d]imidazole-6-carboxylic acid]: the EC50 on human GLP-1 receptor is less than 50 nM.

As to `N#Cc1ccc(OCc2cccc(OC3CCN(Cc4nc5ccc(C(=O)O)nc5n4C[C@@H]4CCO4)CC3)n2)c(F)c1` [Example 372, (S)-2-((4-((6-((4-Cyano-2-fluorophenoxy)methyl)pyridin-2-yl)oxy)piperidin-1-yl)methyl)-3-(oxetan-2-ylmethyl)-3H-imidazo[4,5-b]pyridine-5-carboxylic acid], the EC50 at human GLP-1 receptor was less than 50 nM.

For the molecule `O=C(O)c1ccc2nc(CN3CCC(Oc4ccnc(COc5ccc(F)cc5Cl)n4)CC3)n(C[C@H]3CCN3C(=O)c3ccon3)c2c1` [Example 483, (R)-2-((4-((2-((2-Chloro-4-fluorophenoxy)methyl)pyrimidin-4-yl)oxy)piperidin-1-yl)methyl)-1-((1-(isoxazole-3-carbonyl)azetidin-2-yl)methyl)-1H-benzo[d]imidazole-6-carboxylic acid], the EC50 on human GLP-1 receptor is less than 50 nM.

In the case of `N#Cc1ccc(OCc2nccc(OC3CCN(Cc4nc5ncc(C(=O)O)cc5n4C[C@@H]4CCO4)CC3)n2)c(F)c1` [Example 486, (S)-2-((4-((2-((4-Cyano-2-fluorophenoxy)methyl)pyrimidin-4-yl)oxy)piperidin-1-yl)methyl)-1-(oxetan-2-ylmethyl)-1H-imidazo[4,5-b]pyridine-6-carboxylic acid], the EC50 on human GLP-1 receptor was less than 50 nM.

`N#Cc1ccc(OCc2nccc(O[C@H]3CCN(Cc4nc5ccc(C(=O)O)cc5n4C[C@@H]4CCO4)[C@@H](CF)C3)n2)c(F)c1` [Example 490, 2-(((2R,4S)-4-((2-((4-Cyano-2-fluorophenoxy)methyl)pyrimidin-4-yl)oxy)-2-(fluoromethyl)piperidin-1-yl)methyl)-1-(((S)-oxetan-2-yl)methyl)-1H-benzo[d]imidazole-6-carboxylic acid]: the EC50 at human GLP-1 receptor was less than 50 nM.

On to `N#Cc1cc(F)c(OCc2nccc(OC3CCN(Cc4nc5ccc(C(=O)O)cc5n4C[C@@H]4CCO4)CC3)n2)cc1F` [Example 498, (S)-2-((4-((2-((4-Cyano-2,5-difluorophenoxy)methyl)pyrimidin-4-yl)oxy)piperidin-1-yl)methyl)-1-(oxetan-2-ylmethyl)-1H-benzo[d]imidazole-6-carboxylic acid], for which, at human GLP-1 receptor, the EC50 was less than 50 nM.

These data come from US20230089073A1 (Carmot Therapeutics, Inc., priority 2021, published 2023).
